From patent US8138191B2, “Inhibitor compounds and cancer treatment methods” (Critical Outcome Technologies Inc., priority 2007, dated 2012)

Columns and labels:
[1] = tested on: PI3K activity in DMS114 cells; experiment: PI3-K activity (PIP3 detection, Echelon kit), DMS114; type: cell-based, human; details: DMS114, 250 nM COTI-2 alone, 20 minutes
Excerpt: As a negative control, an equivalent volume of DMSO was utilized. […] To measure PI3-K activity, a commercial kit was purchased from Echelon. Following the procedures recommended by the manufacturer, membrane lipids were extracted in several steps and the resulting PIP3 was immobilized to nitrocellulose and measured by its interaction with a PH-domain containing protein and HRP-conjugated antibody supplied with the kit. As an additional control in these experiments, the specific PI3-K inhibitor, LY294002 was used to inhibit PI3-K and thus stop PIP3 production.

[2] = tested on: A549, H460, DMS114 and SHP77 cells; experiment: Western blot of total mTOR, mTOR phospho-Ser2448/Ser2481 and Akt phospho-Thr308; type: cell-based, human; details: 4 h
SHP 77 cells = experiment: Proliferation with anti-cancer agents plus COTI-2, SHP 77; type: cell-based, human
MCF-7 cells = experiment: Sensitivity to COTI-2 after PTEN siRNA knockdown (alamar Blue), MCF-7; type: cell-based, human; details: MCF-7, 48 h post-transfection
Protocol: Briefly, HeLa and MCF-7 cells were transfected with 100 nM PTEN siRNA or control non-targeted siRNA at 48 or 144 h prior to exposure to various concentrations of COTI-2.
To assess the capacity of transient siRNA transfection to alter the ability of cells to proliferate in the presence or absence of COTI-2, HeLa or MCF-7 cells (both PTEN-positive) were plated in T25 flasks and transfected 24 h later with PTEN siRNA or non-targeting control siRNA (100 nM in both cases), using Oligofectamine Reagent (Invitrogen) according to the manufacturer's instructions and as previously described (J Pharmacol Exp Ther, 322:123-132). […] PTEN and 18S rRNA mRNA levels were determined by semi-quantitative reverse transcription PCR. […]
For determination of drug sensitivity, HeLa and MCF-7 cells (transfected with PTEN siRNA or control, non-targeted siRNA 48 or 144 hours prior) were re-plated in 96-well plates (VWR, Mississauga, ON, Canada) at 1700 (MCF-7) and 1200 (HeLa) cells per well in a volume of 100 μl of DMEM+10% FBS. […] Cells were then grown for 4 days, and viable cell numbers were assessed by the alamar Blue fluorescence assay using a Wallac Victor^2 multilabel counter (PerkinElmer Wallac, Gaithersburg, Md.). […]

in vitro = details: human
Protocol: (§1) TC7 cells were seeded at 1×10^5 cells/cm^2 on porous polycarbonate membrane in 96-well Multiscreen™ plates (Millipore). Cells were fed every 2 to 3 days and the day before the permeability assay. Permeability assays are performed with the cells at days 13-25 post-seeding. The assay directions included apical to basolateral (A-B) and basolateral to apical (B-A). The working solution for COTI-2 was prepared at 10 μM in HBSS-MES (5 mM), pH 6.5, or HBSS-HEPES (5 mM), pH 7.4, from a 1 mM DMSO stock solution. The working solution was then centrifuged and the supernatant was added to the apical or basolateral side with a final DMSO concentration of 1%. The assay was incubated for 60 or 40 min with gentle shaking at 37° C. The sampling scheme consisted of donor time zero, donor time 60 or 40 min, and receiver time 60 or 40 min. Samples were analyzed via (RP)HPLC-MS/MS using selected reaction monitoring (SRM). […] The cell monolayer integrity was confirmed by fluorescein permeability assessment (in the A-B direction at pH 7.4 on both sides with 1 h incubation) after the permeability assay with COTI-2. The cell monolayer that has a fluorescein permeability of less than 0.5×10^−6 cm/s was considered intact. The apparent permeability coefficient (Papp) of COTI-2 in the […] and the percent recovery of the compounds were calculated.

[3] = tested on: TC7 (human intestinal epithelial cells); experiment: in vitro
Protocol: as §1

P-glycoprotein = molecular target: T1, P-glycoprotein (Homo sapiens, UniProt P08183); experiment: P-glycoprotein inhibition (TC7, 3H-digoxin substrate); type: in vitro ADME
T1 construct: endogenous in cells; host or cells: TC7 cells

CYP1A = CYP1A (Homo sapiens, UniProt P05177); experiment: in vitro; details: both
[4] = Caco-2, pH 7.4, Permeability Mean

T1 sequence (P08183 whole entry): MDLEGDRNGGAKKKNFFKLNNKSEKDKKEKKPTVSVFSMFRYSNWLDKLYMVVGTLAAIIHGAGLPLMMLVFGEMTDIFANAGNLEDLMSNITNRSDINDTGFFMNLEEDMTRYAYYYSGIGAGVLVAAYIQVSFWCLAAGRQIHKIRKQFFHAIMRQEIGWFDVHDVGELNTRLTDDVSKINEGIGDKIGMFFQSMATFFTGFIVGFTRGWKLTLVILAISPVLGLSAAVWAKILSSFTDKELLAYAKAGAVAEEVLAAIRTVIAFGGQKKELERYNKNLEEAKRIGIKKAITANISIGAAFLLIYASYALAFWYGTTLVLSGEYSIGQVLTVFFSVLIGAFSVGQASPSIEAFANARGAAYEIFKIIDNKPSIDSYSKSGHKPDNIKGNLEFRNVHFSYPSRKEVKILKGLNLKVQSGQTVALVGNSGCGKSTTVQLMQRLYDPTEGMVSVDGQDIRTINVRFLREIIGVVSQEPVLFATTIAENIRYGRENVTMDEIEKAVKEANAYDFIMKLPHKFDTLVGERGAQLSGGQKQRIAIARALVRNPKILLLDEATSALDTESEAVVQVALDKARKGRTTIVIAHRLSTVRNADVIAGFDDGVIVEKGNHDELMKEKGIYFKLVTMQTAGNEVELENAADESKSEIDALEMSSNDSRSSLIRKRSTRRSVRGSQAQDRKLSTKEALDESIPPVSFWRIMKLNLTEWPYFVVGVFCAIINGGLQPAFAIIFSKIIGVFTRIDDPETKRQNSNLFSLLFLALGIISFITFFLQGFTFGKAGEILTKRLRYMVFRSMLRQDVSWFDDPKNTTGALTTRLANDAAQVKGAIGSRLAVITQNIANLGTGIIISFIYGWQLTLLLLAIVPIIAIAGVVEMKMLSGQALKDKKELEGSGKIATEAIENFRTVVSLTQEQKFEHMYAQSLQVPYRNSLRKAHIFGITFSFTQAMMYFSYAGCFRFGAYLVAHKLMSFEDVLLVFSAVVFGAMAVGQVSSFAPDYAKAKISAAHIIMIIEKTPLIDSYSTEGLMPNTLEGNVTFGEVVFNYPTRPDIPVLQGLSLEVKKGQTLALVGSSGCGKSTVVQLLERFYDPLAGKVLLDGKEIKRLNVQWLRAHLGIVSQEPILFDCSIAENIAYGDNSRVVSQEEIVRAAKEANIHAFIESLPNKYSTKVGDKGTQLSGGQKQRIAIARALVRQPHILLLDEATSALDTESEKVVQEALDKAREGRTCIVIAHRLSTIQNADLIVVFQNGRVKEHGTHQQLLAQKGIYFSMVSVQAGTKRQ
CYP1A, sequence (P05177 whole entry): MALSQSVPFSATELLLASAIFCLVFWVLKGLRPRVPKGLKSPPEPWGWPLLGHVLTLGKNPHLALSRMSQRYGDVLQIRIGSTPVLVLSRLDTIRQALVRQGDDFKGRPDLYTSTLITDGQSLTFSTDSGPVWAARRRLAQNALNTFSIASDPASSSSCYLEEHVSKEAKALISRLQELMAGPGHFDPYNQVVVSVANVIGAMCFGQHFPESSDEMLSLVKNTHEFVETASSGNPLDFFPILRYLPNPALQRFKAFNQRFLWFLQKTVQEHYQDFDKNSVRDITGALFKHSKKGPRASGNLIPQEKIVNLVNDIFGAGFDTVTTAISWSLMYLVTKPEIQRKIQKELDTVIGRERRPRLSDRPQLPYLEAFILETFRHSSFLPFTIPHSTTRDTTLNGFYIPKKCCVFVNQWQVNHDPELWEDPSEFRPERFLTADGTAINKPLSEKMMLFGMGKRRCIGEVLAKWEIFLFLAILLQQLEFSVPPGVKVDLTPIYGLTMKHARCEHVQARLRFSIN

SMILES: S=C(N/N=C1/CCCc2cccnc21)N1CCN(c2ccccn2)CC1 [COTI-2]
- increase in PI3K activity (PIP3 levels) [1]: approximately 25%
- PKB/Akt phospho-Thr308 levels ([2]; A549 cells): decreased
- mTOR phospho-Ser2448 level ([2]; SHP77 cells): reduced
- reduction of proliferation as a single agent (SHP 77 cells; SHP 77, 31 nM): 25%
- reduction of proliferation as a single agent (SHP 77 cells; SHP 77, 73 nM): 25%
- resistance to COTI-2 after PTEN siRNA transfection (MCF-7 cells): significant increase in the resistance
- efflux ratio at 10 µM (in vitro; Caco-2): ~4.5
- Papp A→B at 10 µM (in vitro; Caco-2, A-B permeability (Papp)): < 3 nm/s
- recovery at 10 µM (in vitro; Caco-2, mean recovery): 22%
- Papp A→B at 10 µM (in vitro; [4]): < 3 nm/s
- Papp B→A at 10 µM (in vitro; [4]): 14 nm/s
- Pgp substrate assessment ([3]; Caco-2): not a substrate of Pgp
- Flags ([3]; Caco-2, pH 7.4): BLQ
- nH (P-glycoprotein; P-glycoprotein Inhibition, TC7, 3H-digoxin substrate): 0.5
- IC50 (P-glycoprotein; TC-7, radiolabelled digoxin, read-out: IC50, Pgp inhibition): 39 µM
- inhibition at 15 min, 10 µM (CYP1A; human liver microsomes, pH 7.4, probe phenacetin (10 µM)): -2%
- inhibition at 15 min, 10 µM (CYP1A; liver microsomes, pH 7.4, probe phenacetin): < 50%
